Measured values published in patent publication US4479943A, “3-Demethoxyistamycin B, the 2"-N-formimidoyl derivative thereof and pharmaceutical composition containing same” (Zaidan Hojin Biseibutsu Kagaku Kenkyu Kai, priority 1982, dated 1984).
Values after ≈ are worked out from the molar mass of the structure shown.

Assays:
[1] = test system: Staphylococcus aureus FDA 209P; test: Antibacterial MIC, standard serial dilution; assay type: cell-based; details: nutrient agar, 37° C., 17 hours, as free base
[2] = test system: Staphylococcus aureus Smith; test: Antibacterial MIC, standard serial dilution; assay type: cell-based; details: nutrient agar, 37° C., 17 hours, as free base
[3] = test system: Staphylococcus aureus Ap01; test: Antibacterial MIC, standard serial dilution; assay type: cell-based; details: nutrient agar, 37° C., 17 hours, as free base
[4] = test system: Staphylococcus epidermidis 109; test: Antibacterial MIC, standard serial dilution; assay type: cell-based; details: nutrient agar, 37° C., 17 hours, as free base
[5] = test system: Micrococcus flavus FDA 16; test: Antibacterial MIC, standard serial dilution; assay type: cell-based; details: nutrient agar, 37° C., 17 hours, as free base
[6] = test system: Sarcina lutea PCI 1001; test: Antibacterial MIC, standard serial dilution; assay type: cell-based; details: nutrient agar, 37° C., 17 hours, as free base
[7] = test system: Bacillus anthracis; assay type: cell-based; details: nutrient agar, 37° C., 17 hours, as free base
[8] = test system: Bacillus subtilis PCI 219; test: Antibacterial MIC, standard serial dilution; assay type: cell-based; details: nutrient agar, 37° C., 17 hours, as free base
[9] = test system: Bacillus subtilis NRRL B-558; test: Antibacterial MIC, standard serial dilution; assay type: cell-based; details: nutrient agar, 37° C., 17 hours, as free base
[10] = test system: Bacillus cereus ATCC 10702; test: Antibacterial MIC, standard serial dilution; assay type: cell-based; details: nutrient agar, 37° C., 17 hours, as free base
[11] = test system: Corynebacterium bovis 1810; test: Antibacterial MIC, standard serial dilution; assay type: cell-based; details: nutrient agar, 37° C., 17 hours, as free base
[12] = test system: Mycobacterium smegmatis ATCC 607; test: Antibacterial MIC, standard serial dilution; assay type: cell-based; details: nutrient agar, 37° C., 17 hours, as free base
[13] = test system: Escherichia coli NIHJ; test: Antibacterial MIC, standard serial dilution; assay type: cell-based; details: nutrient agar, 37° C., 17 hours, as free base
[14] = test system: Escherichia coli K-12; test: Antibacterial MIC, standard serial dilution; assay type: cell-based; details: nutrient agar, 37° C., 17 hours, as free base
[15] = test system: Escherichia coli K-12 R5; test: Antibacterial MIC, standard serial dilution; assay type: cell-based; details: nutrient agar, 37° C., 17 hours, as free base
[16] = test system: Escherichia coli K-12 R388; test: Antibacterial MIC, standard serial dilution; assay type: cell-based; details: nutrient agar, 37° C., 17 hours, as free base
[17] = test system: Escherichia coli K-12 J5R11-2; test: Antibacterial MIC, standard serial dilution; assay type: cell-based; details: nutrient agar, 37° C., 17 hours, as free base
[18] = test system: Escherichia coli K-12 ML1629; test: Antibacterial MIC, standard serial dilution; assay type: cell-based; details: nutrient agar, 37° C., 17 hours, as free base
[19] = test system: Escherichia coli K-12 ML1630; test: Antibacterial MIC, standard serial dilution; assay type: cell-based; details: nutrient agar, 37° C., 17 hours, as free base
[20] = test system: Escherichia coli K-12 ML1410; test: Antibacterial MIC, standard serial dilution; assay type: cell-based; details: nutrient agar, 37° C., 17 hours, as free base
[21] = test system: Escherichia coli K-12 LA290 R55; test: Antibacterial MIC, standard serial dilution; assay type: cell-based; details: nutrient agar, 37° C., 17 hours, as free base
[22] = test system: Escherichia coli K-12 LA290 R56; test: Antibacterial MIC, standard serial dilution; assay type: cell-based; details: nutrient agar, 37° C., 17 hours, as free base
[23] = test system: Escherichia coli W677; test: Antibacterial MIC, standard serial dilution; assay type: cell-based; details: nutrient agar, 37° C., 17 hours, as free base
[24] = test system: Escherichia coli JR66/W677; test: Antibacterial MIC, standard serial dilution; assay type: cell-based; details: nutrient agar, 37° C., 17 hours, as free base
[25] = test system: Escherichia coli JR225; test: Antibacterial MIC, standard serial dilution; assay type: cell-based; details: nutrient agar, 37° C., 17 hours, as free base
[26] = test system: Klebsiella pneumoniae PCI602; test: Antibacterial MIC, standard serial dilution; assay type: cell-based; details: nutrient agar, 37° C., 17 hours, as free base
[27] = test system: Klebsiella pneumoniae 22#3038; test: Antibacterial MIC, standard serial dilution; assay type: cell-based; details: nutrient agar, 37° C., 17 hours, as free base
[28] = test system: Shigella dysenteriae JS11910; test: Antibacterial MIC, standard serial dilution; assay type: cell-based; details: nutrient agar, 37° C., 17 hours, as free base
[29] = test system: Salmonella typhi T-63; test: Antibacterial MIC, standard serial dilution; assay type: cell-based; details: nutrient agar, 37° C., 17 hours, as free base
[30] = test system: Salmonella enteritidis 1891; test: Antibacterial MIC, standard serial dilution; assay type: cell-based; details: nutrient agar, 37° C., 17 hours, as free base
[31] = test system: Proteus vulgaris 0X19; test: Antibacterial MIC, standard serial dilution; assay type: cell-based; details: nutrient agar, 37° C., 17 hours, as free base
[32] = test system: Proteus rettgeri GN311; test: Antibacterial MIC, standard serial dilution; assay type: cell-based; details: nutrient agar, 37° C., 17 hours, as free base
[33] = test system: Proteus rettgeri GN466; test: Antibacterial MIC, standard serial dilution; assay type: cell-based; details: nutrient agar, 37° C., 17 hours, as free base
[34] = test system: Serratia marcescens; test: Antibacterial MIC, standard serial dilution; assay type: cell-based; details: nutrient agar, 37° C., 17 hours, as free base
[35] = test system: Serratia sp. SOU; test: Antibacterial MIC, standard serial dilution; assay type: cell-based; details: nutrient agar, 37° C., 17 hours, as free base
[36] = test system: Serratia sp. 4; test: Antibacterial MIC, standard serial dilution; assay type: cell-based; details: nutrient agar, 37° C., 17 hours, as free base
[37] = test system: Providencia sp. Pv16; test: Antibacterial MIC, standard serial dilution; assay type: cell-based; details: nutrient agar, 37° C., 17 hours, as free base
[38] = test system: Providencia sp. 2991; test: Antibacterial MIC, standard serial dilution; assay type: cell-based; details: nutrient agar, 37° C., 17 hours, as free base
[39] = test system: Pseudomonas aeruginosa A3; test: Antibacterial MIC, standard serial dilution; assay type: cell-based; details: nutrient agar, 37° C., 17 hours, as free base
[40] = test system: Pseudomonas aeruginosa No. 12; test: Antibacterial MIC, standard serial dilution; assay type: cell-based; details: nutrient agar, 37° C., 17 hours, as free base
[41] = test system: Pseudomonas aeruginosa H9; test: Antibacterial MIC, standard serial dilution; assay type: cell-based; details: nutrient agar, 37° C., 17 hours, as free base
[42] = test system: Pseudomonas aeruginosa H11; test: Antibacterial MIC, standard serial dilution; assay type: cell-based; details: nutrient agar, 37° C., 17 hours, as free base
[43] = test system: Pseudomonas aeruginosa TI-13; test: Antibacterial MIC, standard serial dilution; assay type: cell-based; details: nutrient agar, 37° C., 17 hours, as free base
[44] = test system: Pseudomonas aeruginosa GN315; test: Antibacterial MIC, standard serial dilution; assay type: cell-based; details: nutrient agar, 37° C., 17 hours, as free base
[45] = test system: Pseudomonas aeruginosa 99; test: Antibacterial MIC, standard serial dilution; assay type: cell-based; details: nutrient agar, 37° C., 17 hours, as free base
[46] = test system: Pseudomonas aeruginosa B-13; test: Antibacterial MIC, standard serial dilution; assay type: cell-based; details: nutrient agar, 37° C., 17 hours, as free base
[47] = test system: Pseudomonas aeruginosa 21-75; test: Antibacterial MIC, standard serial dilution; assay type: cell-based; details: nutrient agar, 37° C., 17 hours, as free base
[48] = test system: Pseudomonas aeruginosa PST1; test: Antibacterial MIC, standard serial dilution; assay type: cell-based; details: nutrient agar, 37° C., 17 hours, as free base
[49] = test system: Pseudomonas aeruginosa ROS 134/PU21; test: Antibacterial MIC, standard serial dilution; assay type: cell-based; details: nutrient agar, 37° C., 17 hours, as free base
[50] = test system: Pseudomonas aeruginosa K-Ps 102; test: Antibacterial MIC, standard serial dilution; assay type: cell-based; details: nutrient agar, 37° C., 17 hours, as free base
[51] = test system: Pseudomonas maltophilia GN 907; test: Antibacterial MIC, standard serial dilution; assay type: cell-based; details: nutrient agar, 37° C., 17 hours, as free base
[52] = test system: bacteria; details: in words; earlier work; cited from earlier work

CNCC1CCC(N)C(OC2C(N)CC(O)C(N(C)C(=O)CNC=N)C2O)O1 (stereo not shown) [Demethyl formimidoyl ista B, 3-O-demethyl-2"-N-formimidoylistamycin B]
MIC [1]: 0.39 µg/mL (≈ 0.969 µM) | MIC [2]: < 0.20 µg/mL | MIC [3]: 0.39 µg/mL (≈ 0.969 µM) | MIC [4]: 0.20 µg/mL (≈ 0.497 µM) | MIC [5]: 0.39 µg/mL (≈ 0.969 µM) | MIC [6]: 0.39 µg/mL (≈ 0.969 µM) | MIC [7]: 0.39 µg/mL (≈ 0.969 µM) | MIC [8]: 0.20 µg/mL (≈ 0.497 µM) | MIC [9]: < 0.20 µg/mL | MIC [10]: 0.78 µg/mL (≈ 1.94 µM) | MIC [11]: < 0.20 µg/mL | MIC [12]: 0.39 µg/mL (≈ 0.969 µM) | MIC [13]: 0.39 µg/mL (≈ 0.969 µM) | MIC [14]: 0.78 µg/mL (≈ 1.94 µM) | MIC [15]: 0.78 µg/mL (≈ 1.94 µM) | MIC [16]: 0.78 µg/mL (≈ 1.94 µM) | MIC [17]: 1.56 µg/mL (≈ 3.88 µM) | MIC [18]: 0.78 µg/mL (≈ 1.94 µM) | MIC [19]: 1.56 µg/mL (≈ 3.88 µM) | MIC [20]: 1.56 µg/mL (≈ 3.88 µM) | MIC [21]: 0.78 µg/mL (≈ 1.94 µM) | MIC [22]: 0.78 µg/mL (≈ 1.94 µM) | MIC [23]: 0.39 µg/mL (≈ 0.969 µM) | MIC [24]: 1.56 µg/mL (≈ 3.88 µM) | MIC [25]: 0.39 µg/mL (≈ 0.969 µM) | MIC [26]: 0.78 µg/mL (≈ 1.94 µM) | MIC [27]: 1.56 µg/mL (≈ 3.88 µM) | MIC [28]: 1.56 µg/mL (≈ 3.88 µM) | MIC [29]: < 0.20 µg/mL | MIC [30]: 1.56 µg/mL (≈ 3.88 µM) | MIC [31]: 0.39 µg/mL (≈ 0.969 µM) | MIC [32]: 0.39 µg/mL (≈ 0.969 µM) | MIC [33]: 0.39 µg/mL (≈ 0.969 µM) | MIC [34]: 1.56 µg/mL (≈ 3.88 µM) | MIC [35]: 12.5 µg/mL (≈ 31.1 µM) | MIC [36]: 12.5 µg/mL (≈ 31.1 µM) | MIC [37]: 0.78 µg/mL (≈ 1.94 µM) | MIC [38]: 0.78 µg/mL (≈ 1.94 µM) | MIC [39]: 0.20 µg/mL (≈ 0.497 µM) | MIC [40]: 12.5 µg/mL (≈ 31.1 µM) | MIC [41]: 12.5 µg/mL (≈ 31.1 µM) | MIC [42]: 25 µg/mL (≈ 62.1 µM) | MIC [43]: 12.5 µg/mL (≈ 31.1 µM) | MIC [44]: 6.25 µg/mL (≈ 15.5 µM) | MIC [45]: 100 µg/mL (≈ 248 µM) | MIC [46]: 100 µg/mL (≈ 248 µM) | MIC [47]: 25 µg/mL (≈ 62.1 µM) | MIC [48]: 25 µg/mL (≈ 62.1 µM) | MIC [49]: 100 µg/mL (≈ 248 µM) | MIC [50]: 12.5 µg/mL (≈ 31.1 µM) | MIC [51]: > 100 µg/mL | antibacterial activity [52]: active not only against Pseudomonas aeruginosa but also against a variety of resistant bacteria
